Data set [1] is described as follows: captive bubble surfactometer (CBS), oxidized BLES with added cholesterol. It counts as physicochemical, cattle. The note with it: MβCD (20 mmol) in the aqueous phase. As for the experimental part:
In a model study, 0, 5 and 10 weight percent cholesterol was added to a ROS-exposed cattle lipid surfactant extract as an example of how even a normal (physiological) amount of cholesterol renders surfactant exposed to ROS and its derivatives dysfunctional; the function of the surfactant model was determined in a captive bubble surfactometer (CBS).
Surface activity of surfactant was determined with a computer-controlled captive bubble surfactometer (CBS) as described in detail by Gunasekara et al. (Gunasekara L, Schoel W M, Schürch S & Amrein M W (2008) A comparative study of mechanisms of surfactant inhibition. BBA—Biomembranes 1778: 433-444), with two important changes: 1) A transparent capillary was used to deposit a ˜1.0 μL bolus of 27 mg/mL surfactant near the air-buffer interface. The quantity and concentration of surfactant were chosen to minimize effects caused by insufficient surfactant or bulk phase adsorption. This amount of native BLES reliably reproduces minimum and maximum surface tensions as measured in situ at functional reserve capacity and total lung capacity (<1 mN/m and ˜30 mN/m, respectively) (Bachofen H & Schtirch S (2001) Alveolar surface forces and lung architecture. Comparative Biochemistry and Physiology—Part A: Molecular & Integrative Physiology 129: 183-193). […]

Data set [2] in a line: murine model of acute lung injury (acid injury), MβCD aerosol, surfactant function. It is filed as in vivo, mice. The source says: In this study, a murine model of acute lung injury (ALI), the earliest phase of ARDS, was created by acid injury of the lung according to published procedures (Allen, G. B. et al. Neither fibrin nor plasminogen activator inhibitor-1 deficiency protects lung function in a mouse model of acute lung injury. American Journal of Physiology-Lung Cellular and Molecular Physiology 296, L277-L285 (2009)) and analyzed with respect to lung mechanics, oxygenation, lung histology, lung ultrastructure, surfactant function and composition (FIGS. 3A-E). Elastance (or its inverse, compliance) and pressure-volume curves are commonly used to assess lung function in ALI/ARDS (JONSON, B. et al. Pressure-volume curves and compliance in acute lung injury. American journal of respiratory and critical care medicine 159, 1172-1178 (1999)).

The nature of data set [3]: CBS dynamic cycling of BLES with added (oxidized) phospholipids. It is filed as physicochemical, bovine. To be noted: non-oxidized lipid in BLES containing cholesterol, exposure to ambient air. An excerpt:
In this Example, the role of oxidized polyunsaturated phospholipids in causing cholesterol-dependent surfactant dysfunction was studied. Oxidation of surfactant by the Fenton-like reaction or in the presence of ROS in the inflamed lung results in the formation of lipid-peroxides with polyunsaturated phospholipids the principal target. […] This introduction of a hydrophilic group in the formerly hydrophobic region will disrupt lipid packing. […] This is consistent with peroxidized PLPC, CL and other polyunsaturated phospholipids present in surfactant causing dysfunction together with cholesterol. […]
To ensure accurate mixing, additional lipids were added to lipid extracts of BLES or oxBLES as organic solutions. […] Phospholipid concentration was assessed using a phosphate assay (Gentaur Molecular Products, Kampenhout, Belgium) after liberation of free phosphate (Duck-Chong C G (1979) A rapid sensitive method for determining phospholipid phosphorus involving digestion with magnesium nitrate. Lipids 14: 492-497). […] BLES contained 2.60% cholesterol (w/w phospholipids) as determined using an enzymatic assay for cholesterol (Amplex Red Cholesterol Assay, Invitrogen, Eugene, Oreg., USA). hSP-A was added to dried films when indicated to a final concentration of 5% (w/w phospholipids). […]

Take methyl-β-cyclodextrin [MβCD]: the surface tension entry in data set [1] was “almost zero”. For the same compound, the “surfactant function in vivo” value in data set [2] (in the lung, given as an aerosol) is given as “can restore surfactant function”. Also, the “minimum surface tension of surfactant” value in data set [2] (injured mice treated with an MβCD-aerosol) was below 10 mN/m.

As to `CCCCC/C=C\C/C=C\CCCCCCCC(=O)O[C@H](COC(=O)CCCCCCCCCCCCCCC)COP(=O)([O-])OCC[N+](C)(C)C` [PLPC, 1-palmitoyl-2-linoleoyl-sn-glycero-3-phosphocholine], the “surfactant function over time” value in data set [3] was “became dysfunctional after several hours”.

Take `CCCCC/C=C\C/C=C\CCCCCCCC(=O)OC[C@H](COP(=O)(O)OCC(O)COP(=O)(O)OC[C@H](COC(=O)CCCCCCC/C=C\C/C=C\CCCCC)OC(=O)CCCCCCC/C=C\C/C=C\CCCCC)OC(=O)CCCCCCC/C=C\C/C=C\CCCCC` (some centres unmarked) [CL, 1′,3′-Bis[1,2-dilinoleoyl-sn-glycero-3-phospho]-sn-glycerol]: the “surfactant function over time” value in data set [3] is “became dysfunctional after several hours”.
